The values below come from patent US20240018102A1, “COMPOUNDS AND COMPOSITIONS FOR TREATING CONDITIONS ASSOCIATED WITH LPA RECEPTOR ACTIVITY” (Lhotse Bio, Inc., priority 2020, published 2024).

The target of test [1] is T1, human LPA1 (Homo sapiens, UniProt Q92633).
T1 construct: expressed in transfected cells; host or cells: CHO-K1
In words: In vitro LPA1 functional antagonist assay (calcium mobilization, FLIPR). Particulars: CHO-K1 cells overexpressing human LPA1; Oleoyl LPA challenge; calcium mobilization on FLIPR Tetra. It counts as cell-based. On the procedure: In Vitro LPA1 Functional Antagonist Assay
CHO-K1 cells overexpressing human LPA1 were seeded in a total volume of 20 μL into black-walled, clear-bottom, Poly-D-lysine coated 384-well microplates and incubated at 37° C. for the appropriate time prior to testing. Assays were performed in 1× Dye Loading Buffer consisting of 1× Dye, 1× Additive A and 2.5 mM Probenecid in HBSS/20 mM Hepes. Probenicid was prepared fresh. Cells were loaded with dye prior to testing. Media was aspirated from cells and replaced with […] Dye Loading Buffer. Cells were incubated for 30-60 minutes at 37° C. After dye loading, cells were removed from the incubator and 10 μL 3× test compound was added. Cells were incubated for 30 minutes at room temperature in the dark to equilibrate plate temperature followed by Oleoyl LPA challenge at the 0.018 M. Compound antagonist activity was measured on a FLIPR Tetra (MDS). Calcium mobilization was monitored for 2 minutes and 10 μL Oleoyl LPA in HBSS/20 mM Hepes was added to the cells 5 seconds into the assay. Compound activity was analyzed using CBIS data analysis suite (ChemInnovation, CA). Percentage inhibition is calculated using the following formula:
% Inhibition=100%×(1−(mean RFU of test sample−mean RFU of vehicle control)/(mean RFU of LPA control−mean RFU of vehicle control)).
(In general: Calcium flux is commonly read through the fluorescence of an indicator in the cells.)

In test [2] the target is T1, human LPA1. Nature of the test: In vitro LPA1 calcium flux antagonist assay, Bioduro protocol. Format: cell-based. Conditions: CHO-K1 cells overexpressing human LPA1 and G15a; LPA challenge at EC80; calcium mobilization on FLIPR Tetra; read-out: IC50 (nM) in Assay B2. On the procedure:
In Vitro LPA1 Calcium Flux Antagonist Assay Bioduro Protocol
CHO-K1 cells overexpressing human LPA1 and G15a were seeded at a total volume of 20 uL (15000 cells/well) into Matrigel pre-coated 384-well plates (coming -3764) and incubated at 37° C. After overnight incubation, the cells were serum starved for 4 h. Assays were performed in dye loading buffer containing 1× Fluo-8 AM (AAT Bioquest, 21080) and 2.5 mM probenecid (Thermo Fisher, 36400) in HBSS/20 mM Hepes. After cell starvation, the medium was replaced with 20 uL of dye loading buffer and incubated at 37° C. for 30 min. Then 5 uL of 5× compound titrated in dye loading buffer was added to the cells and incubated for 30 min followed by LPA challenge at EC80. Calcium mobilization was measured on a FLIPR Tetra (MDS). For LPA EC80 determination, starved cells were incubated with 20 uL of dye loading buffer for 1 h, then 5 uL of 5×LPA titrated in dye loading buffer was added to the cells. Calcium signals induced by LPA was monitors on a FLIPR.
Percentage inhibition is calculated using the following formula:
% Inhibition=100%×(1−(mean RFU of test sample−mean RFU of DMSO)/(mean RFU of LPA control−mean RFU of DMSO)).

The structures appear in SMILES notation.

T1 sequence (Q92633 whole entry): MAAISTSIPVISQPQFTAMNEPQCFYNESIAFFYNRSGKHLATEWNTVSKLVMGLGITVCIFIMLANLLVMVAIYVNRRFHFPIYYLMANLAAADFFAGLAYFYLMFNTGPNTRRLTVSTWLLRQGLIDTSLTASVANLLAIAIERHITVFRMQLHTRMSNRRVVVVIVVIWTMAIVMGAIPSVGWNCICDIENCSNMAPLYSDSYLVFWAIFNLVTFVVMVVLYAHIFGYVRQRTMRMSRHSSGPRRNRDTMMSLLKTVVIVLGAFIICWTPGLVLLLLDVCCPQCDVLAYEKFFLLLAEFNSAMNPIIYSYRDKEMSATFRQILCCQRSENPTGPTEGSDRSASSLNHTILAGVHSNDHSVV

With `COc1cc([C@H](O)[C@H](Cn2cc3cccc(C(=O)O)c3n2)OC2CCCC2)ccc1F` [Compound 138], the IC50 on human LPA1 [1] is greater than 10000 nM.
On the same count and under the same terms, with `COc1cc([C@H](O)[C@H](Cn2cc3cccc(C(N)=O)c3n2)OC2CCCC2)ccc1F` [Compound 135] the figure was greater than 10000 nM.
The same measure, in the same setting: with `O=C(O)c1cccc2cn(C[C@H](OC3CCCC3)[C@H](O)c3ccc(C(F)(F)F)cc3)nc12` [Compound 124a] the figure was 5700 nM; with `COc1cc([C@@H](O)[C@H](Cc2nc3cc(C(=O)O)ccc3n2C)OCC2CCC2)cc(OC)c1C` [Compound 119a, 2-[(2S,3R)-2-(cyclobutylmethoxy)-3-(3,5-dimethoxy-4-methyl-phenyl)-3-hydroxy-propyl]-1-methyl-benzimidazole-5-carboxylic acid], greater than 10000 nM; with `COc1cc([C@@H](O)[C@H](Cn2cc3cccc(C(=O)O)c3n2)OC2Cc3ccccc3C2)cc(OC)c1C` [Compound 113a, 2-((2S, 3R)-2-((2,3-dihydro-1H-inden-2-yl)oxy)-3-(3,5-dimethoxy-4-methylphenyl)-3-hydroxypropyl)-2H-indazole-7-carboxylic acid], 3.69 nM.
Same read-out and setting: the figure for `COC(=O)c1cn(C[C@H](OC2Cc3ccccc3C2)[C@H](O)c2cc(OC)c(C)c(OC)c2)cc1CC(=O)O` [Compound 103a, 2-(1-((2S,3R)-2-((2,3-dihydro-1H-inden-2-yl)oxy)-3-(3,5-dimethoxy-4-methylphenyl)-3-hydroxypropyl)-4-(methoxycarbonyl)-1H-pyrrol-3-yl)acetic acid] is 4.74 nM; for `COC(=O)c1cn(C[C@H](OCC2CCC2)[C@H](O)c2cc(OC)c(C)c(OC)c2)cc1CC(=O)O` [Compound 117a] it is 61.9 nM; for `CCOC(=O)c1cn(C[C@H](OC2CCCC2)[C@H](O)c2cc(OC)c(C)c(OC)c2)cc1CC(=O)O` [Compound 143] it is 7.66 nM.
On to `COc1cc([C@@H](O)[C@H](Cc2nc3cc(CC(=O)O)ccc3n2C)OCC2CCC2)cc(OC)c1C` [Compound 120a, 2-[2-[(2S,3R)-2-(cyclobutylmethoxy)-3-(3,5-dimethoxy-4-methyl-phenyl)-3-hydroxy-propyl]-1-methyl-benzimidazol-5-yl]acetic acid], for which the concentration for half-maximal inhibition (IC50) on human LPA1 [1] is greater than 10000 nM.
On the same count and under the same terms, with `COc1cc([C@@H](O)[C@H](Cn2cc3cccc(C(=O)O)c3n2)OC2CCCC2)ccc1Cl` [Compound 126a, 2-((2S,3R)-3-(4-chloro-3-methoxyphenyl)-2-(cyclopentyloxy)-3-hydroxypropyl)-2H-indazole-7-carboxylic acid] the figure was 64.8 nM; with `COc1cc([C@@H](O)[C@H](Cn2cc3cc(Cl)cc(C(=O)O)c3n2)OC2CCCC2)cc(OC)c1C` [Compound 144], 2.04 nM; with `O=C(O)c1cccc2cn(C[C@H](OC3CCCC3)[C@H](O)c3ccccc3)nc12` [Compound 136], greater than 10000 nM.
The same measure, in the same setting: the figure for `COc1cc([C@@H](O)[C@H](Cc2nc(CC(=O)O)cs2)OC2CCCC2)cc(OC)c1C` [Compound 112a, 2-(2-((2S,3R)-2-(cyclopentyloxy)-3-(3,5-dimethoxy-4-methylphenyl)-3-hydroxypropyl)thiazol-4-yl)acetic acid] is 56.1 nM; for `COc1cc([C@@H](O)C(Cn2cc3cccc(C(=O)O)c3n2)OCCc2ccccc2)cc(OC)c1C` (stereo in doubt) [Compound 105a, 2-((2R,3R)-3-(3,5-dimethoxy-4-methylphenyl)-3-hydroxy-2-phenethoxypropyl)-2H-indazole-7-carboxylic acid] it is 3.35 nM.
Regarding `CCOc1cc([C@@H](O)[C@H](Cn2cc3cccc(C(=O)O)c3n2)OC2CCCC2)ccc1C` [Compound 141], at human LPA1 [1], the IC50 was 193 nM.
Same read-out and setting: with `COC(=O)c1cn(C[C@H](OCCc2ccccc2)[C@H](O)c2cc(OC)c(C)c(OC)c2)cc1CC(=O)O` [Compound 104a, 2-(1-((2S,3R)-3-(3,5-dimethoxy-4-methylphenyl)-3-hydroxy-2-phenethoxypropyl)-4-(methoxycarbonyl)-1H-pyrrol-3-yl)acetic acid] the figure was 5.24 nM.
In the case of `COc1cc([C@@H](O)[C@H](Cc2cn3nccc(C(=O)O)c3n2)OC2CCCC2)cc(OC)c1C` [Compound 156], the half-maximal inhibitory concentration (IC50) at human LPA1 [2] turned out to be 301 nM.
As to `COc1cc([C@@H](O)[C@H](Cn2cc3nccc(C(=O)O)c3n2)OC2CCCC2)cc(OC)c1C` [Compound 160, 2-((2S,3R)-2-(cyclopentyloxy)-3-(3,5-dimethoxy-4-methylphenyl)-3-hydroxypropyl)-2H-pyrazolo[4,3-b]pyridine-7-carboxylic acid], the IC50 on human LPA1 [2] was found to be 138 nM.
Still for that read-out and setting: the figure for `COc1cc([C@@H](O)[C@H](Cn2cc3cc(C#N)cc(C(=O)O)c3n2)OC2CCCC2)ccc1C(F)F` [Compound 225] is 29.3 nM; for `COc1cc([C@@H](O)[C@H](Cc2cc3cc(C(F)(F)F)cc(C(=O)O)n3n2)OC2CCCC2)cc(OC)c1C` [Compound 250] it is 17.4 nM.
Same read-out and setting: the figure for `COc1cc([C@@H](O)[C@H](Cn2cc3cccc(-c4nc(=O)o[nH]4)c3n2)OC2CCCC2)cc(OC)c1C` [Compound 181] is greater than 10000 nM; for `COc1cc([C@@H](O)[C@H](Cn2cc3cc(C(N)=O)cc(C(=O)O)c3n2)OC2CCCC2)cc(OC)c1C` [Compound 221] it is 91.8 nM.
On the same count and under the same terms, the figure for `COc1cc([C@@H](O)[C@H](Cc2nc3c(C(=O)O)cc(C)cc3s2)OC2CCCC2)cc(OC)c1C` [Compound 256] is 4.12 nM; for `COc1cc([C@@H](O)[C@H](Cc2nc3c(C(=O)O)cc(C4CC4)cc3s2)OC2CCCC2)cc(OC)c1C` [Compound 245] it is 2.51 nM.
In the case of `COc1cc([C@@H](O)[C@H](Cn2cc3cc(C(F)(F)F)cc(C(=O)O)c3n2)OC2CCCC2)cc(OC)c1C` [Compound 163], at human LPA1 [2], the IC50 turned out to be 4.23 nM.
On the same count and under the same terms, with `CCc1cc(C(=O)O)n2nc(C[C@H](OCC(C)C)[C@H](O)c3cc(OC)c(C)c(OC)c3)cc2c1` [Compound 241] the figure was 26.7 nM; with `COc1cc([C@@H](O)[C@H](Cn2cc3nccc(C(=O)O)c3n2)OC2CCCC2)c(Cl)c(OC)c1C` [Compound 202], 4260 nM; with `COc1cc([C@@H](O)[C@H](Cc2nc3c(C(=O)O)cccc3s2)OC2Cc3ccccc3C2)cc(OC)c1C` [Compound 273], 3.81 nM.
For `COc1cc([C@@H](O)[C@H](Cn2cc3cc(Cl)cc(C(=O)O)c3n2)OC2CCCC2)ccc1C(F)F` [Compound 173], at human LPA1 [2], the IC50 worked out at 6.09 nM.
For `COc1cc([C@@H](O)[C@H](Cn2cc3nccc(C(=O)O)c3n2)OC2CCCC2)ccc1C(F)F` [Compound 189], on human LPA1 [2], the half-maximal inhibitory concentration (IC50) stood at 454 nM.
In the case of `COc1cc([C@H](O)[C@H](Cc2nc3c(C(=O)O)cccc3s2)OC2CCCC2)cc(OC)c1C` [Compound 281], on human LPA1 [2], the IC50 turned out to be 717 nM.
As for `COc1cc([C@@H](O)[C@H](Cn2cc3cccc(C(=O)O)c3n2)OCC(C)C)cc(OC)c1C` [Compound 146], the IC50 at human LPA1 [2] worked out at 36.8 nM.
Same read-out and setting: with `COc1cc(C(=O)O)c2nc(C[C@@H](OC3CCCC3)[C@H](O)c3cc(OC)c(C)c(OC)c3)sc2c1` [Compound 283] the figure was 1760 nM; with `COc1cc([C@@H](O)[C@H](Cc2nc3c(C(=O)O)cc(OC)c(F)c3s2)OC2CCCC2)cc(OC)c1C` [Compound 279], 2.71 nM; with `COc1cc([C@@H](O)[C@H](Cn2nc3cccc(C(=O)O)c3n2)OC2CCCC2)cc(OC)c1C` [Compound 170], greater than 10000 nM.
The same measure, in the same setting: the figure for `COc1c(C)ccc([C@@H](O)[C@H](Cn2cc3nccc(C(=O)O)c3n2)OC2CCCC2)c1Cl` [Compound 200] is 1130 nM.
`CCCc1sc(C[C@H](OC2CCCC2)[C@H](O)c2cc(OC)c(C(C)=O)c(OC)c2)nc1C(C)C(=O)O` (stereo partly shown) [Compound 272]: the 50% inhibitory concentration (IC50) on human LPA1 [2] stood at 71.6 nM.
On the same count and under the same terms, with `COc1cc([C@@H](O)[C@H](Cn2cc3nccc(C(=O)O)c3n2)OC2CCCC2)cc(OC)c1C(F)F` [Compound 215] the figure was 140 nM.
On the same count and under the same terms, with `CCCc1sc(C[C@H](OCC(C)C)[C@H](O)c2cc(OC)c(C)c(OC)c2)nc1C(C)C(=O)O` (stereo partly shown) [Compound 267] the figure was 103 nM.
As for `CCOc1cc([C@@H](O)[C@H](Cn2cc3cc(C#N)cc(C(=O)O)c3n2)OC2CCCC2)cc(OCC)c1C` [Compound 226], the IC50 at human LPA1 [2] is 28.9 nM.

The IC50 is the point on the concentration scale where inhibition reaches its midpoint.
